Conditions: 21 days
Protocol: Etonogestrel (ETO) solubility in the hydrophilic polyurethane, Hydrothane AL 25-80A, was determined by evaluating its in-vitro elution (IVE) from core sheath IVRs containing ETO in the core at various loadings.
The core polymer was Hydrothane AL 25-80A and the sheath polymer EVA VA content 28% w/w.

Csat in Hydrothane AL 25-80A (concentration concluded to be below Csat) [%]	Compound
> 0.25	C#C[C@]1(O)CC[C@H]2[C@@H]3CCc4cc(O)ccc4[C@H]3CC[C@@]21C [EE, Ethinyl Estradiol]
> 1.00	C#C[C@]1(O)CC[C@H]2[C@@H]3CCC4=CC(=O)CC[C@@H]4[C@H]3C(=C)C[C@@]21CC [ETO, Etonogestrel]

— US9872829B2, “Core sheath drug delivery devices” (Chemo Research, S.L., priority 2012, dated 2018)
